The values below come from patent publication US10646488B2 (Araxes Pharma LLC, priority 2016, dated 2020).

Each structure is given as a SMILES string.

One test concerns the target T1, KRAS G12C 1-169, his-tagged protein, GDP-loaded (Homo sapiens, UniProt P01116, G12C).
T1 construct: KRAS G12C 1-169, his-tagged protein, GDP-loaded
Put plainly: Covalent binding (% modification) to KRAS G12C by mass spectrometry. Further: test concentration or dose not given here. Particulars: covalent binding to KRAS G12C after a ten minute incubation period.
In the case of `C=CC(=O)N1[C@H](C)CN(c2nc(OCCN3CC(F)(F)C3)nc3c(F)c(-c4c(C)ccc5[nH]ncc45)c(Cl)cc23)C[C@@H]1C` [Compound 41, 1-((2R,6S)-4-(6-chloro-2-(2-(3,3-difluoroazetidin-1-yl)ethoxy)-8-fluoro-7-(5-methyl-1H-indazol-4-yl)quinazolin-4-yl)-2,6-dimethyl-piperazin-1-yl) prop-2-en-1-one], the Binding % entry is “++ (++ indicates binding activity from 50 to 90%)”. On the same count and under the same terms, the value for `C=CC(=O)N1C[C@H](C)N(c2nc(OCCN(CC)CC)nc3c(F)c(-c4c(C)ccc5[nH]ncc45)c(Cl)cc23)C[C@H]1C` [Compound 77, 1-((2R,5S)-4-(6-chloro-2-(2-(diethylamino)ethoxy)-8-fluoro-7-(5-methyl-1H-indazol-4-yl)quinazolin-4-yl)-2,5-dimethyl-piperazin-1-yl) prop-2-en-1-one] was “+++ (+++ indicates binding activity greater than 90%)”; that for `C=CC(=O)N1CCN(c2c(C#N)c(N3CC(N(C)C)C3)nc3c(F)c(-c4c(O)cccc4F)c(Cl)cc23)C[C@H]1C` [Compound 76] was “+ (+ indicates binding activity up to 50%)”. The same measure, in the same setting: then `C=CC(=O)N1C[C@@H](C)N(c2nc(N3CC(O)C3)nc3c(F)c(-c4c(O)cccc4F)c(Cl)cc23)[C@@H](C)C1` [Compound 66, 1-((3R,5S)-4-(6-chloro-8-fluoro-7-(2-fluoro-6-hydroxyphenyl)-2-(3-hydroxyazetidin-1-yl)quinazolin-4-yl)-3,5-dimethyl-piperazin-1-yl) prop-2-en-1-one], with “+++ (+++ indicates binding activity greater than 90%)”; and `C=CC(=O)N1CCN(c2nc(N3CC(N(C)C)C3)nc3c(F)c(-c4c(O)cccc4F)c(Cl)cc23)C[C@H]1C` (atropisomer, axis not shown) [Compound 60, 1-((R)-4-((S)-6-chloro-2-(3-(dimethylamino)azetidin-1-yl)-8-fluoro-7-(2-fluoro-6-hydroxyphenyl)quinazolin-4-yl)-2-methyl-piperazin-1-yl) prop-2-en-1-one], with “+++ (+++ indicates binding activity greater than 90%)”. The same measure, in the same setting: then `C=CC(=O)N1[C@H](C)CN(c2nc(OCCN(CC)CC)nc3c(F)c(-c4c(C)ccc5cn[nH]c45)c(Cl)cc23)C[C@@H]1C` [Compound 23, 1-((2R,6S)-4-(6-chloro-2-(2-(diethylamino)ethoxy)-8-fluoro-7-(6-methyl-1H-indazol-7-yl)quinazolin-4-yl)-2,6-dimethyl-piperazin-1-yl) prop-2-en-1-one], with “++ (++ indicates binding activity from 50 to 90%)”; and `C=CC(=O)N1[C@H](C)CN(c2nc(N3CC(N(C)C)C3)nc3c(F)c(-c4c(O)cccc4F)c(Cl)cc23)C[C@@H]1C` [Compound 68, 1-((2R,6S)-4-((R)-6-chloro-2-(3-(dimethylamino)azetidin-1-yl)-8-fluoro-7-(2-fluoro-6-hydroxyphenyl)quinazolin-4-yl)-2,6-dimethyl-piperazin-1-yl) prop-2-en-1-one], with “+++ (+++ indicates binding activity greater than 90%)”. With `C=CC(=O)N1CCN(c2nc(N3CC(N(C)C)C3)nc3c(F)c(-c4c(O)cccc4F)c(Cl)cc23)[C@@H](C)C1` (atropisomer, axis not shown) [Compound 58, 1-((S)-4-((S)-6-chloro-2-(3-(dimethylamino)azetidin-1-yl)-8-fluoro-7-(2-fluoro-6-hydroxyphenyl)quinazolin-4-yl)-3-methyl-piperazin-1-yl) prop-2-en-1-one], the Binding % entry is “+++ (+++ indicates binding activity greater than 90%)”.

Staying with this test, now noted: covalent binding to KRAS G12C after a three minute incubation period.
On to `C=CC(=O)N1C[C@H](C)N(c2nc(N3CC(N)C3)nc3c(F)c(-c4c(O)cccc4F)c(Cl)cc23)C[C@H]1C` [Compound 92], for which the Binding % entry is given as “++ (++ indicates binding activity from 50 to 90%)”. Same read-out and setting: then `C=CC(=O)N1C[C@H](C)N(c2nc(N3CC4(CCN(C5CC5)CC4)C3)nc3c(F)c(-c4c(C)ccc5[nH]ncc45)c(Cl)cc23)C[C@H]1C` [Compound 200, 1-((2R,5S)-4-(6-chloro-2-(7-cyclopropyl-2,7-diazaspiro[3.5]nonan-2-yl)-8-fluoro-7-(5-methyl-1H-indazol-4-yl)quinazolin-4-yl)-2,5-dimethyl-piperazin-1-yl) prop-2-en-1-one], with “++ (++ indicates binding activity from 50 to 90%)”; and `C=CC(=O)N1C[C@H](C)N(c2nc(N3CC(N(CC)CC)C3)nc3c(F)c(-c4c(O)cccc4F)c(Cl)cc23)C[C@H]1C` [Compound 126, 1-((2R,5S)-4-(6-chloro-2-(3-(diethylamino)azetidin-1-yl)-8-fluoro-7-(2-fluoro-6-hydroxyphenyl)quinazolin-4-yl)-2,5-dimethyl-piperazin-1-yl) prop-2-en-1-one], with “+++ (+++ indicates binding activity greater than 90%)”.

On to `[2H]C([2H])([2H])N(C1CN(c2nc(N3C[C@@H](C)N(C(=O)C=C)C[C@@H]3C)c3cc(Cl)c(-c4c(O)cccc4F)c(F)c3n2)C1)C([2H])([2H])[2H]` [Compound 196, 1-((2R,5S)-4-(2-(3-(bis (trideuteromethyl)amino)azetidin-1-yl)-6-chloro-8-fluoro-7-(2-fluoro-6-hydroxyphenyl)quinazolin-4-yl)-2,5-dimethyl-piperazin-1-yl) prop-2-en-1-one], for which the Binding % entry is on record as “+++ (+++ indicates binding activity greater than 90%)”.

Turning to `[2H]C([2H])([2H])N(C1CN(c2nc(N3C[C@@H](C)N(C(=O)C=C)C[C@@H]3C)c3cc(Cl)c(-c4cc(O)cc5ccccc45)c(F)c3n2)C1)C([2H])([2H])[2H]` (atropisomer, axis not shown) [Compound 229], the Binding % result was “+ (+ indicates binding activity greater than 0% and up to 50%)”. Same read-out and setting: then `[2H]C([2H])([2H])N(C1CN(c2nc(N3C[C@@H](C)N(C(=O)C=C)C[C@@H]3C)c3cc(Cl)c(-c4c(O)cccc4F)c(F)c3n2)C1)C([2H])([2H])[2H]` (atropisomer, axis not shown) [Compound 212, 1-((2R,5S)-4-(2-(3-(bis(triduetero-methyl)amino)azetidin-1-yl)-6-chloro-8-fluoro-7-((R)-2-fluoro-6-hydroxyphenyl)quinazolin-4-yl)-2,5-dimethyl-piperazin-1-yl) prop-2-en-1-one], with “+ (+ indicates binding activity greater than 0% and up to 50%)”; and `C[C@@H]1CN(c2nc(N3CC(N(C)C)C3)nc3c(F)c(-c4c(O)cccc4F)c(Cl)cc23)[C@@H](C)CN1C(=O)C#CCO` [Compound 113, 1-((2R,5S)-4-(6-chloro-2-(3-(dimethylamino)azetidin-1-yl)-8-fluoro-7-(2-fluoro-6-hydroxyphenyl)quinazolin-4-yl)-2,5-dimethyl-piperazin-1-yl)-4-hydroxybut-2-yn-1-one], with “+++ (+++ indicates binding activity greater than 90%)”; and `C=CC(=O)N1CCN(c2nc(N3CC(N(CC)CC)C3)nc3c(F)c(-c4c(O)cccc4F)c(Cl)cc23)C[C@H]1C` [Compound 164, 1-((2R)-4-(6-chloro-2-(3-(diethylamino)azetidin-1-yl)-8-fluoro-7-(2-fluoro-6-hydroxyphenyl)quinazolin-4-yl)-2-methyl-piperazin-1-yl) prop-2-en-1-one], with “++ (++ indicates binding activity from 50 to 90%)”.
